From patent publication US20260184712A1, “Heterocyclic Compounds as ENT Inhibitors and Compounds for Use in the Treatment of Cancers” (iTeos Belgium SA, priority 2022, published 2026)
pIC50: −log10 of the molar value.

How the values were obtained:
[1] = tested on: stimulated primary human T cells; assay: T cell proliferation assay, Condition B (X-VIVO15, 2% HSA and 0.1% AAG); assay type: cell-based; settings: Homo sapiens, T-cell, 96 h; Condition B: X-VIVO15 medium containing HSA and α1-Acid Glycoprotein; anti-CD3/anti-CD28 beads, ATP, 4 days; CFSE-lo T cells
Experimental: (§1) The goal of this study was to determine the potency of ENT1 inhibitors by measuring the rescued proliferation of stimulated primary human T cells incubated in the presence of 100 uM Adenosine triphosphate (ATP), in baseline conditions (condition A) or in the presence of various proteins known to bind small molecules (condition B).
Condition B: X-VIVO15, 2% Human Serum Albumin (HSA) and 0.1% α-1-Acid Glycoprotein (AAG)
(§2) Venous blood from healthy volunteers, all of whom signed an informed consent approved by the Ethics Committee (FOR—UIC—BV-050-01-01 ICF_HBS_HD Version 5.0), was obtained by ImmuneHealth (Centre Hospitalier Universitaire Tivoli, La Louviere, Belgium). Mononuclear cells were collected by density gradient centrifugation, using SepMate-50 tubes (StemCell Technologies, Grenoble, France) and Lymphoprep (Stemcell Technologies) according to the manufacturer's instructions. CD3+ T cells were isolated by immunomagnetic negative selection, using the EasySep Human T Cell Isolation Kit (StemCell Technologies) as per the manufacturer's instructions. CD3+ T cells were stored in heat inactivated FBS (hiFBS; Gibco, ThermoFisher Scientific, Merelbeke, Belgium) and 10% DMSO in liquid nitrogen.
(§3) Purified human CD3+ T cells were thawed and washed once with RPMI1640 medium, UltraGlutamine (Lonza, Verviers, Belgium) containing 10% hiFBS. Cells were resuspended in PBS containing 10% hiFBS at 1×10^7 cells/ml. One volume of cells was combined with a matching volume of 2 μM CFSE solution in PBS, mixed well by pipetting, and incubated at room temperature for 5 minutes under rotation and protected from light. Excess CFSE was quenched by addition of PBS containing 10% hiFBS, and the cells were centrifuged (300×rcf, 7 minutes) and resuspended in X-VIVO15. Cells were again centrifuged and resuspended in X-VIVO15 for counting.
(§4) Cells were resuspended at 1.6×10^6 cells/mL in X-VIVO15 medium (Condition A) or X-VIVO15 medium containing 4% (v/v) HSA (Sigma-Aldrich, Diegem, Belgium) and 0.2% (v/v) ai-Acid Glycoprotein (Sigma-Aldrich, Diegem, Belgium) (Condition B).
(§5) […] of cell suspension (2×10^4 cells) was added to wells of sterile flat-bottom 384-well plates. Cells were activated by adding […] of anti-CD3 anti-CD28 coated microbeads (Dynabeads human T-activator CD3/CD28; Life Technologies, Paisley, UK) suspended in X-VIVO15 medium or X-VIVO15 medium containing 4% (v/v) HSA and 0.2% (v/v) ai-Acid Glycoprotein at a ratio of one microbead per two cells. Serial dilutions of the ENT1 inhibitors were conducted in X-VIVO15 medium and […] of the diluent was added to the wells. Cells were mixed by pipetting up and down and pre-incubated for 30 minutes in a 37° C. humidified tissue culture incubator with 5% CO2. After pre-incubation, cells were cultured in the presence or absence of ATP (Sigma-Aldrich) at a final concentration of […]. The final well volume was 50 μl in all cases. Experiments were performed in biological duplicates. Cells were mixed by pipetting up and down and incubated for 4 days in a 37° C. humidified tissue culture incubator with 5% CO2.
(§6) Samples were run on a BD LSR Fortessa FACS machine (BD FACSDiva Software v9.0.1). Data were analyzed using FlowJo (BD, v10.7.1). T cell proliferation was determined by measuring the frequency of ‘CFSE^lo’ (i.e. CFSE-diluted).
(§7) T cell proliferation data were analyzed using FlowJo software (Version 10.6.2). Dead cells and cellular debris were excluded on the basis of forward and side scatter profile and singlet cells were selected for further analysis.
(§8) T cell proliferation was determined based on the percent CFSE^lo total T cells for each condition. The data were plotted on the y-axis against log molar (M) concentration of ENT1 inhibitors on the x-axis in GraphPad Prism (version 9.0.0). IC50 and IC90 values were generated with the ‘log(agonist) vs. response—Find ECanything(F))’ function with F constrained to 50 or 90, respectively. pICF values were generated by taking the −logECF values.

[2] = tested on: stimulated primary human T cells; assay: T cell proliferation assay, Condition A (X-VIVO15); assay type: cell-based; settings: Homo sapiens, T-cell, 96 h; Condition A: X-VIVO15 medium; anti-CD3/anti-CD28 beads, ATP, 4 days; CFSE-lo T cells
Experimental: as §1, §2, §3, §4, §5, §6, §7, §8

human ENT1 = target: T1, human ENT1 (Homo sapiens, UniProt Q99808); assay: ENT1 binding assay (competition with Sahenta-DY647 on JAR cells); settings: competition with SAHENTA-DY647 binding; IC50 categorized; read-out: Binding Assay IC50
T1 construct: JAR cells expressing ENT1 were purchased from ATCC; host or cells: JAR cells
T1 sequence (Q99808 1-456): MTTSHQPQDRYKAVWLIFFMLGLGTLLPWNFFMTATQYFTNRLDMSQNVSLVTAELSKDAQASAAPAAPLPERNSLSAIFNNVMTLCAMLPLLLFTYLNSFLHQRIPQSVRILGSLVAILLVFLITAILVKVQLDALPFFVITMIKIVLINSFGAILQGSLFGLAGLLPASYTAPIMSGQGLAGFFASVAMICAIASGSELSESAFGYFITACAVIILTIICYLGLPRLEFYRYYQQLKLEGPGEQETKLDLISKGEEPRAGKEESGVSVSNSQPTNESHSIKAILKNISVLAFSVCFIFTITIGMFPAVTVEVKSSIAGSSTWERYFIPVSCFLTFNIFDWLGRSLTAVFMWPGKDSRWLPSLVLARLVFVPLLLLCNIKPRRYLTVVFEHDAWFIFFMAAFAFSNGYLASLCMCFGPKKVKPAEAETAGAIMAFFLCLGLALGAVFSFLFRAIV
Method in brief: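 Fluorescent-tracer displacement: compound incubated with JAR cells 30 min, 4 °C, before Sahenta-DY647 (100 nM) for another 30 min, 4 °C, in Hepes-buffered HBSS with 0.1% BSA. Bound tracer read at 670 nm after washes; IC50 from four-parameter fit, reported as mean of pIC50 values.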

| SMILES | pIC50 (human ENT1) | pIC50 [1] | pIC50 [2] |
| --- | --- | --- | --- |
| C[C@H]1O[C@@H](n2c(NC3CCC(O)C3)nc3c(OCc4ccc([N+](=O)[O-])cc4)ncnc32)[C@H](O)[C@@H]1O (stereo partly drawn) [Compound 29] | > 9.00 | 7.70 to 9.00 | > 9.00 |
| C[C@H]1O[C@@H](n2c(NC3CCS(=O)(=O)CC3)nc3c(OCc4ccc([N+](=O)[O-])cc4)ncnc32)[C@H](O)[C@@H]1O [Compound 31] | > 9.00 | 7.70 to 9.00 | > 9.00 |
| C[C@H]1O[C@@H](n2c(NCCC3CCN(C)CC3)nc3c(OCc4ccc([N+](=O)[O-])cc4)ncnc32)[C@H](O)[C@@H]1O [Compound 34] | 6.30 to 7.70 | 6.30 to 7.70 | 7.70 to 9.00 |
| CC(C)Nc1nc2c(OCc3ccc(C#N)cc3)ncnc2n1[C@@H]1O[C@H](C)[C@@H](O)[C@H]1O [Compound 40] | 7.70 to 9.00 | 6.30 to 7.70 | > 9.00 |
| C[C@H]1O[C@@H](n2c(NC3CCS(=O)(=O)CC3)nc3c(OCc4ccc(OC(F)F)cc4)ncnc32)[C@H](O)[C@@H]1O [Compound 55] | > 9.00 | 7.70 to 9.00 | > 9.00 |
| C[C@H]1O[C@@H](n2c(NCc3cnn(C)c3)nc3c(OCc4ccc(C#N)cc4)ncnc32)[C@H](O)[C@@H]1O [Compound 65] | 7.70 to 9.00 | 6.30 to 7.70 | 7.70 to 9.00 |
| C[C@H]1O[C@@H](n2c(N[C@@H]3CCC(F)(F)C3)nc3c(OCc4ccc(C#N)cc4)ncnc32)[C@H](O)[C@@H]1O [Compound 81] | > 9.00 | 6.30 to 7.70 | > 9.00 |
| C[C@H]1O[C@@H](n2c(NC3CCCC3)nc3c(OCc4ccc(C#N)c(F)c4)ncnc32)[C@H](O)[C@@H]1O [Compound 89] | > 9.00 | 6.30 to 7.70 | > 9.00 |
| C[C@H]1O[C@@H](n2c(NCC3CCOC3)nc3c(OCc4ccc(OC(F)F)cc4)ncnc32)[C@H](O)[C@@H]1O (stereo partly drawn) [Compound 112] | 7.70 to 9.00 | 6.30 to 7.70 | > 9.00 |
| C[C@H]1O[C@@H](n2c(NCC3CC(F)(F)C3)nc3c(OCc4ccc(OC(F)F)nc4)ncnc32)[C@H](O)[C@@H]1O [Compound 114] | 7.70 to 9.00 | 6.30 to 7.70 | > 9.00 |
| CCNc1nc2c(N3CCc4ccc([N+](=O)[O-])cc4C3)ncnc2n1[C@@H]1O[C@H](C)[C@@H](O)[C@H]1O [Compound 150] | 7.70 to 9.00 | 6.30 to 7.70 | 7.70 to 9.00 |
| COC(=O)[C@H]1O[C@@H](n2cnc3c(SCc4ccc([N+](=O)[O-])cc4)ncnc32)[C@H](O)[C@@H]1O [Compound 152] | 7.70 to 9.00 | < 6.30 | < 6.30 |
| C[C@H]1O[C@@H](n2c(NC3CCCC3)nc3c(N4CCc5ccc(C#N)cc5C4)ncnc32)[C@H](O)[C@@H]1O [Compound 153] | 7.70 to 9.00 | 6.30 to 7.70 | > 9.00 |

More lines, main results first:

| pIC50 (human ENT1) | SMILES | pIC50 [1] | pIC50 [2] |
| --- | --- | --- | --- |
| > 9.00 | CC(C)Nc1nc2c(OCc3ccc([N+](=O)[O-])cc3)ncnc2n1[C@@H]1O[C@H](C)[C@@H](O)[C@H]1O [Compound 25] | 7.70 to 9.00 | > 9.00 |
| 7.70 to 9.00 | C[C@H]1O[C@@H](n2c(NC3CC3)nc3c(OCc4ccc([N+](=O)[O-])cc4)ncnc32)[C@H](O)[C@@H]1O [Compound 26] | 6.30 to 7.70 | 7.70 to 9.00 |
| > 9.00 | C[C@H]1O[C@@H](n2c(NC3CCOCC3)nc3c(OCc4ccc([N+](=O)[O-])cc4)ncnc32)[C@H](O)[C@@H]1O [Compound 30] | 7.70 to 9.00 | > 9.00 |
| 7.70 to 9.00 | C[C@H]1O[C@@H](n2c(NCCCO)nc3c(OCc4ccc(OC(F)F)cc4)ncnc32)[C@H](O)[C@@H]1O [Compound 44] | 6.30 to 7.70 | 7.70 to 9.00 |
| 7.70 to 9.00 | C[C@H]1O[C@@H](n2c(NC3CC(F)(F)C3)nc3c(OCc4ccc([N+](=O)[O-])cc4)ncnc32)[C@H](O)[C@@H]1O [Compound 47] | 6.30 to 7.70 | > 9.00 |
| 7.70 to 9.00 | C[C@H]1O[C@@H](n2c(NC3CC(F)(F)C3)nc3c(OCc4ccc(C#N)cc4)ncnc32)[C@H](O)[C@@H]1O [Compound 49] | 6.30 to 7.70 | < 6.30 |
| > 9.00 | C[C@H]1O[C@@H](n2c(NC3CCC(O)CC3)nc3c(OCc4ccc(OC(F)F)cc4)ncnc32)[C@H](O)[C@@H]1O (stereo partly drawn) [Compound 53] | 7.70 to 9.00 | > 9.00 |
| > 9.00 | C[C@H]1O[C@@H](n2c(NC3CCS(=O)(=O)CC3)nc3c(OCc4ccc(C#N)cc4)ncnc32)[C@H](O)[C@@H]1O [Compound 54] | 6.30 to 7.70 | > 9.00 |
| 7.70 to 9.00 | C[C@H]1O[C@@H](n2c(N[C@@H]3CCOC3)nc3c(OCc4ccc(C#N)cc4)ncnc32)[C@H](O)[C@@H]1O [Compound 77] | 6.30 to 7.70 | > 9.00 |
| > 9.00 | CC(=O)N1CCC(Nc2nc3c(OCc4ccc(OC(F)F)cc4)ncnc3n2[C@@H]2O[C@H](C)[C@@H](O)[C@H]2O)CC1 [Compound 79] | 7.70 to 9.00 | > 9.00 |
| 7.70 to 9.00 | C[C@H]1O[C@@H](n2c(NCC3CCOC3)nc3c(OCc4ccc(C#N)cc4)ncnc32)[C@H](O)[C@@H]1O (stereo partly drawn) [Compound 108] | 6.30 to 7.70 | 7.70 to 9.00 |
| 7.70 to 9.00 | C[C@H]1O[C@@H](n2c(NCC3CCOCC3)nc3c(OCc4ccc(OC(F)F)cc4)ncnc32)[C@H](O)[C@@H]1O [Compound 113] | 6.30 to 7.70 | > 9.00 |
| > 9.00 | C[C@H]1O[C@@H](n2c(N)nc3c(N4CCc5ccc([N+](=O)[O-])cc5C4)ncnc32)[C@H](O)[C@@H]1O [Compound 145] | 6.30 to 7.70 | 7.70 to 9.00 |
| 7.70 to 9.00 | CC(C)Nc1nc2c(N3CCc4ccc(C#N)cc4C3)ncnc2n1[C@@H]1O[C@H](C)[C@@H](O)[C@H]1O [Compound 154] | < 6.30 | 7.70 to 9.00 |
| 7.70 to 9.00 | OC[C@H]1O[C@@H](n2cnc3c(OCc4ccc(OC(F)(F)F)cc4)nc(Cl)nc32)[C@H](O)[C@@H]1O [Compound 156] | 6.30 to 7.70 | 7.70 to 9.00 |
